As a reminder, the logP is the decadic logarithm of the partition coefficient of the neutral form, usually between octanol and water. Read a low logP as lower lipophilicity.

Structures are written as SMILES.

The series can be described thus: method code SF-AS, from DOI: 10.1002/qsar.19900090404.
`CCCOc1ccccn1`: the log partition coefficient (logP) amounted to 2.38. `NC(=O)c1ncccn1`: the logP is -1.2.

For `CCOc1ccccn1`, the lipophilicity (logP) worked out at 1.81. The result for `NC(=O)c1cccnn1` reads -0.73; that for `CCOC(=O)c1cnccn1`, 0.28. The result for `CCOc1cncnc1` reads 0.56; that for `Fc1cncnc1`, -0.03. The result for `COc1ccncn1` reads 0.54. Regarding `Clc1cccnn1`, the logP was 0.1.

With `N#Cc1ccnnc1`, the logP was -0.63. The result for `CCOc1cccnn1` reads 0.63. The result for `CCOc1ccnnc1` reads 0.2; that for `CN(C)c1ccncn1`, 0.58; that for `N#Cc1cnccn1`, -0.01. Under `NC(=O)c1cnccn1` stands -0.5; under `Fc1ccccn1`, 0.84. As to `CCOc1ccncn1`, the logP was 0.97. Under `CCOC(=O)c1ncccn1` stands -0.31; under `CN(C)c1cncnc1`, 0.46; under `Cc1cncnc1`, 0.01. With `CC(=O)Nc1ccnnc1`, the logP was -0.41. In turn, `Clc1cnccn1` yielded a logP of 0.7. `CC(=O)Nc1ccncn1` came in with a log partition coefficient (logP) of 0.03. Under `NC(=O)c1ccnnc1` stands -0.96; under `CSc1cnccn1`, 1.17. The result for `Fc1ncccn1` reads 0.02. Consider `CCOC(=O)c1cncnc1`, for which the lipophilicity (logP) was 0.52. The result for `COC(=O)c1cncnc1` reads 0.03; that for `CC(=O)Nc1cnccn1`, -0.03. With `CCOc1cnccn1`, the logP came to 1.28. Under `Nc1ccncn1` stands -0.25; under `CCOc1ncccn1`, 0.74; under `NC(=O)c1ccncn1`, -0.68. The result for `COC(=O)c1cccnn1` reads -0.43.

In turn, `COc1cccnn1` had a logP of 0.08. The result for `Nc1ccnnc1` reads -0.53. Under `COc1ncccn1` stands 0.23; under `Cc1ncccn1`, -0.05. Under `Fc1cnccn1` stands 0.29.

`CCc1ccccn1` gave a logP of 1.6.

Turning to `CSc1ncccn1`, the logP worked out at 1.01. Under `COc1cncnc1` stands 0.07; under `N#Cc1ncccn1`, -0.31. For the compound `COC(=O)c1ccncn1`, the logP was -0.27. Under `Cc1cccnn1` stands -0.35. Under `CC(=O)Nc1cncnc1` stands -0.22; under `Cc1ccnnc1`, -0.32. The result for `CCOC(=O)c1ccnnc1` reads 0.23; that for `NC(=O)c1cncnc1`, -0.92. In turn, `CN(C)c1ncccn1` gave a log partition coefficient (logP) of 1.07. The result for `COC(=O)c1ncccn1` reads -0.71; that for `Clc1ncccn1`, 0.36; that for `CC(=O)c1cnccn1`, 0.2.

In the case of `COC(=O)c1ccnnc1`, the log partition coefficient (logP) is -0.27. Under `COc1cnccn1` stands 0.73; under `CCCOc1cnccn1`, 1.84.
